For ten molecules, IC50 results are on record in patent US12486267B2, “Imidazo[1,2-A]pyridine and [1,2,4]triazolo[1,5-A]pyridine derivatives as TLR9 inhibitors for the treatment of fibrosis” (BRISTOL-MYERS SQUIBB COMPANY, priority 2020, dated 2025).

The structures appear in SMILES notation. Some results are limits rather than exact numbers.

Common to all, as to format: cell-based
In assay [1] the target is T1, human TLR9 (Homo sapiens, UniProt Q9NR96).
T1 sequence (Q9NR96 26-1032): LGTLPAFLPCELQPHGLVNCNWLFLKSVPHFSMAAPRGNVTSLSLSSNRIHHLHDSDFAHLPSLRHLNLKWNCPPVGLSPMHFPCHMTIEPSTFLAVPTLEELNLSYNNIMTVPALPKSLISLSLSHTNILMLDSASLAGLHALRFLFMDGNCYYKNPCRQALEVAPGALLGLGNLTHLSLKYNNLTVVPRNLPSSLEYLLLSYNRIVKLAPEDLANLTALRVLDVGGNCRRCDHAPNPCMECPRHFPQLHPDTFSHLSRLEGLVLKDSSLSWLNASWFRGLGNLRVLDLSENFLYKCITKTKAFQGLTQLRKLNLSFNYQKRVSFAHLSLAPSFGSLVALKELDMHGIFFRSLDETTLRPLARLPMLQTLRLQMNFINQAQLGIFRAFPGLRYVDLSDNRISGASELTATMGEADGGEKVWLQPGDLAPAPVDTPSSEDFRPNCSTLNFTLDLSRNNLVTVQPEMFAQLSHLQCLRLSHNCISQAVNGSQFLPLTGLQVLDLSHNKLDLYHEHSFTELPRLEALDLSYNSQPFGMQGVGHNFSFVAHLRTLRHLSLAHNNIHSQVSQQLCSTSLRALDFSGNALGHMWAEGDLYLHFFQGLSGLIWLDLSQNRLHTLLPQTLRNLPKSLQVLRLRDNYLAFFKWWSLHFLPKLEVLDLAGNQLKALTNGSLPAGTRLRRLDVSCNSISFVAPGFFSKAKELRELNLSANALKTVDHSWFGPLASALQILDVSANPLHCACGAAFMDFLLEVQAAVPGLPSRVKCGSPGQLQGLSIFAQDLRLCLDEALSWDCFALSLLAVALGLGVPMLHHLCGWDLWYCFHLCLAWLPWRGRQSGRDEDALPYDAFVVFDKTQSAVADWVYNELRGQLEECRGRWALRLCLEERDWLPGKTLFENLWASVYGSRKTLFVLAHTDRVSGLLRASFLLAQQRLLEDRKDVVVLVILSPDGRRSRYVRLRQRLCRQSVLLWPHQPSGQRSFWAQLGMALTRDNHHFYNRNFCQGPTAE
As to the kind of experiment: TLR9 inhibition reporter assay (HEK-Blue cells, SEAP reporter). The settings on record: HEK-Blue cells overexpressing human TLR9; stimulated with ODN2006 5 nM; 22 hour incubation; SEAP readout. An outline of the steps: (§1)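 HEK-Blue cells with an NF-κB/AP-1-driven SEAP reporter were pre-treated 30 min at room temperature with compound (0.05 nM–50 μM), then stimulated with gardiquimod 7.5 μM (TLR7), R848 15.9 μM (TLR8) or ODN2006 5 nM (TLR9). After 22 h at 37 °C, SEAP was read; % inhibition was referenced to agonist+DMSO and known-inhibitor wells.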

The target in assay [2] is T2, human TLR7 (Homo sapiens, UniProt Q9NYK1).
T2 sequence (Q9NYK1 27-1049): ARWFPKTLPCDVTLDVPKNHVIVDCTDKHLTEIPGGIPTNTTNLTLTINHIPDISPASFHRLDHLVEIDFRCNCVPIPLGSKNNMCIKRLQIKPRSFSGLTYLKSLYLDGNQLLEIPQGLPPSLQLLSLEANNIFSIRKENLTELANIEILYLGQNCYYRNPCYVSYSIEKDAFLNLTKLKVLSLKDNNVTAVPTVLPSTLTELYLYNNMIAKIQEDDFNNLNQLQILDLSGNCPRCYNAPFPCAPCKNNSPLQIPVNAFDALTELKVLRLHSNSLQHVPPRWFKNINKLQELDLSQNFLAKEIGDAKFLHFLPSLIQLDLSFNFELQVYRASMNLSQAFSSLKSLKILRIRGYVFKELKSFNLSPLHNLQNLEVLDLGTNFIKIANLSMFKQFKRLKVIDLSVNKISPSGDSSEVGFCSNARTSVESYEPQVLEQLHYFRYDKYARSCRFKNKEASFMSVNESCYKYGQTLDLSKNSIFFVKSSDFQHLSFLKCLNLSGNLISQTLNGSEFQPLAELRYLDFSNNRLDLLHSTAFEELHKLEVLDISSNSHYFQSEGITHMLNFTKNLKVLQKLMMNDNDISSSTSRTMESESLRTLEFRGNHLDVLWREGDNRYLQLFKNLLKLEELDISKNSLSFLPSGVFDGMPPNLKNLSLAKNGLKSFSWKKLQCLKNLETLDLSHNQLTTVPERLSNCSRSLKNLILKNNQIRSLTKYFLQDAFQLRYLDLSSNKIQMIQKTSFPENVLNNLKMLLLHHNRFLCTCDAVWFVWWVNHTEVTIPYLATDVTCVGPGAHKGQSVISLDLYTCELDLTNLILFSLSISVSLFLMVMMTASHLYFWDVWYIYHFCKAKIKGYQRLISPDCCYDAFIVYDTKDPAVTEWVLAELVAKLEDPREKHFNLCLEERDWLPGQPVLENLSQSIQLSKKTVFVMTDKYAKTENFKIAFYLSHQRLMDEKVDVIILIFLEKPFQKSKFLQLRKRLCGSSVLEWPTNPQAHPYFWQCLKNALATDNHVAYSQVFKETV
As to the kind of experiment: TLR7 inhibition reporter assay (HEK-Blue cells, SEAP reporter). The following applies: HEK-Blue cells overexpressing human TLR7; stimulated with gardiquimod 7.5 μM; 22 hour incubation; SEAP readout. A digest of the protocol:
as §1

Assay [3] concerns the target T3, human TLR8 (Homo sapiens, UniProt Q9NR97).
T3 sequence (Q9NR97 27-1041): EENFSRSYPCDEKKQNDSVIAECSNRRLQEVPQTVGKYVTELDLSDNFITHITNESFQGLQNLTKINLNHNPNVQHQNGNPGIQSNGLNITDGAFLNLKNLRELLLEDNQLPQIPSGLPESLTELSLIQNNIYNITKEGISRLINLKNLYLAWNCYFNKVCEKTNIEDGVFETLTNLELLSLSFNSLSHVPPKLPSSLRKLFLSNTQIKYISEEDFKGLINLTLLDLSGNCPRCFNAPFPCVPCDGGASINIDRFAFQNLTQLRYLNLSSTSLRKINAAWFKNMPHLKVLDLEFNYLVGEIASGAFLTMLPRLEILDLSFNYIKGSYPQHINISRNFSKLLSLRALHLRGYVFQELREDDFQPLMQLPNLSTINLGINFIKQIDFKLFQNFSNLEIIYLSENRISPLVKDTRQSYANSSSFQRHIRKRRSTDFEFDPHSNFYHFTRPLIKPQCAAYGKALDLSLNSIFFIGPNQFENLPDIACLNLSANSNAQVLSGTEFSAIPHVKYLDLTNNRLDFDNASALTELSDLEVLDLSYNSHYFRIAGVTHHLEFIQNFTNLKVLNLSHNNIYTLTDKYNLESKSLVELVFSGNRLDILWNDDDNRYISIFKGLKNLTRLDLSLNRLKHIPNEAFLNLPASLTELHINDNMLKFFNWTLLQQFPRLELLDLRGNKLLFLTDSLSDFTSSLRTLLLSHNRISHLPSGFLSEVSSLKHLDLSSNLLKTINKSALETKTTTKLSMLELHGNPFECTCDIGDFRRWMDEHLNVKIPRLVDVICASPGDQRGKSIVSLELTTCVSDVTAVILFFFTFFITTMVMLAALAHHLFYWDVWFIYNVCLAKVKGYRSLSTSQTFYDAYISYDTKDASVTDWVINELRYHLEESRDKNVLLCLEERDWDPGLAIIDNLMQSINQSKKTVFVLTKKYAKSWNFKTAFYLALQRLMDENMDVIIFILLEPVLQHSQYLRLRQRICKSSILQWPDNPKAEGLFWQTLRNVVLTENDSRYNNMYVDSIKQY
As to the kind of experiment: TLR8 inhibition reporter assay (HEK-Blue cells, SEAP reporter). The following applies: HEK-Blue cells overexpressing human TLR8; stimulated with R848 15.9 μM; 22 hour incubation; SEAP readout. As for the experimental part: TLR7/8/9 Inhibition Reporter Assays
HEK-Blue™-cells (Invivogen) overexpressing human TLR7, TLR8 or TLR9 receptors were used for screening inhibitors of these receptors using an inducible SEAP (secreted embryonic alkaline phosphatase) reporter gene under the control of the […] minimal promoter fused to five NF-κB and AP-1-binding sites. Briefly, cells are seeded into Greiner 384 well plates (15000 cells per well for TLR7, 20,000 for TLR8 and 25,000 for TLR9) and then treated with test compounds in DMSO to yield a final dose response concentration range of 0.05 nM-50 μM. After a 30 minute compound pre-treatment at room temperature, the cells are then stimulated with a TLR7 ligand (gardiquimod at a final concentration of 7.5 μM), TLR8 ligand (R848 at a final concentration of 15.9 μM) or TLR9 ligand (ODN2006 at a final concentration of 5 nM) to activate NF-κB and AP-1 which induce the production of SEAP. After a 22 hour incubation at 37° C., 5% CO2, SEAP levels are determined with the addition of HEK-Blue™ Detection reagent (Invivogen), a cell culture medium that allows for detection of SEAP, according to manufacturer's specifications. The percent inhibition is determined as the % reduction in the HEK-Blue signal present in wells treated with agonist plus DMSO alone compared to wells treated with a known inhibitor.
A general note: In a reporter assay the amount or activity of a reporter protein is the signal.

For orientation: IC50 means the concentration needed to halve the response being measured. Lower therefore signals higher potency. On to `COc1ccc(-c2cn3cc(C4CCN(C5CCN(C(C)C)CC5)CC4)cc(C)c3n2)cc1OC` [Example 2, 2-(3,4-dimethoxyphenyl)-6-(1′-isopropyl-[1,4′-bipiperidin]-4-yl)-8-methylimidazo[1,2-a]pyridine], for which the IC50 was 0.052 µM in assay [1], 3.8 µM in assay [2] and above 50 µM in assay [3].

As to `CS(=O)(=O)c1ccc(-c2cn3cc(C4CCN(C5CC6CCC(C5)N6C5CCOCC5)CC4)cc(F)c3n2)cc1` (single isomer, unassigned) [Example 122, 8-fluoro-2-(4-(methylsulfonyl)phenyl)-6-(1-(8-(tetrahydro-2H-pyran-4-yl)-8-azabicyclo[3.2.1]octan-3-yl)piperidin-4-yl) imidazo[1,2-a]pyridine], the IC50 is 0.0078 µM in assay [1], 1.3 µM in assay [2] and 27 µM in assay [3].

`CS(=O)(=O)c1ccc(-c2cn3c(n2)CC[C@@H](C2CCN(C4CC5CCC(C4)N5CC4CC4)CC2)C3)cc1` (single isomer, unassigned) [Example 141]: the IC50 in assay [1] was 0.023 µM; in assay [2], 15.8 µM; in assay [3] it was above 50 µM.

Take `COc1ccc(-c2cn3cc(C4CCN(C5CC6CCC(C5)N6CC5CC5)CC4)cc(C)c3n2)cc1OC` (single isomer, unassigned) [Example 21, 6-(1-(8-(cyclopropylmethyl)-8-azabicyclo[3.2.1]octan-3-yl)piperidin-4-yl)-2-(3,4-dimethoxyphenyl)-8-methylimidazo[1,2-a]pyridine]: the 50% inhibitory concentration (IC50) was 0.126 µM in assay [1], 3 µM in assay [2] and above 50 µM in assay [3].

With `COc1ccc(-c2cn3cc(C4CCN(C5CC6(C5)CN(C5CCC5)C6)CC4)cc(C)c3n2)cc1OC` [Example 14, 6-(1-(2-cyclobutyl-2-azaspiro[3.3]heptan-6-yl)piperidin-4-yl)-2-(3,4-dimethoxyphenyl)-8-methylimidazo[1,2-a]pyridine], the results for the IC50 in assay [1], in assay [2] and in assay [3] were 0.068 µM, above 50 µM and above 50 µM, respectively.

For `COc1ccc(-c2cn3c(n2)CCC(C2CCN(C4CCN(C5CC5)CC4)CC2)C3)cc1OC` (single isomer, unassigned) [Example 37, 6-(1′-cyclopropyl-[1,4′-bipiperidin]-4-yl)-2-(3,4-dimethoxyphenyl)-5,6,7,8-tetrahydroimidazo[1,2-a]pyridine], the values for the half-maximal inhibitory concentration (IC50) in assay [1], in assay [2] and in assay [3] were 0.062 µM, 4 µM and above 50 µM, respectively.

Regarding `Cc1cc(-c2ccc(N3CCN(C(C)C)CC3)cc2)cn2cc(-c3ccc(S(C)(=O)=O)cc3)nc12` [Example 65, 6-(4-(4-isopropylpiperazin-1-yl)phenyl)-8-methyl-2-(4-(methylsulfonyl)phenyl) imidazo[1,2-a]pyridine], the IC50 in assay [1] was 0.67 µM; in assay [2] it was 4.8 µM; in assay [3], above 50 µM.

Turning to `Cc1cc(C2CCN(C3CCN(C4CC4)CC3)CC2)cn2cc(-c3ccc(S(C)(=O)=O)cc3)nc12` [Example 7, 6-(1′-cyclopropyl-[1,4′-bipiperidin]-4-yl)-8-methyl-2-(4-(methylsulfonyl)phenyl) imidazo[1,2-a]pyridine], the IC50 in assay [1] is 0.132 µM; in assay [2], 7.8 µM; in assay [3], above 50 µM.

Consider `COc1ccc(-c2cn3c(n2)CCC(C2CCN(C4CCN(C(=O)C(C)C)CC4)CC2)C3)cc1OC` (single isomer, unassigned) [Example 40, 1-(4-(2-(3,4-dimethoxyphenyl)-5,6,7,8-tetrahydroimidazo[1,2-a]pyridin-6-yl)-[1,4′-bipiperidin]-1′-yl)-2-methylpropan-1-one], for which the IC50 was 0.185 µM in assay [1], 38 µM in assay [2] and above 50 µM in assay [3].

As for `COc1ccc(-c2cn3cc(C4C[C@H]5CC[C@@H](C4)N5C4CCN(C(C)C)CC4)cc(C)c3n2)cc1OC` (mixture of isomers) [Example 30, 2-(3,4-dimethoxyphenyl)-6-(8-(1-isopropylpiperidin-4-yl)-8-azabicyclo[3.2.1]octan-3-yl)-8-methylimidazo[1,2-a]pyridine], the IC50 was 0.037 µM in assay [1], 1.4 µM in assay [2] and above 50 µM in assay [3].
